Experimental data from the supplement of paper PMC10307832.

Legend:
Assay in all cases: relative viability (nuclei count vs DMSO), 5 days (fraction); higher = more cells survive
201T = tested on: 201T
Summary of the method: (§1)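 For relative viability, nuclei counts in treated wells were divided by those in vehicle wells. Lung cancer cell lines had been pin-tool dosed in 1536-well plates the day after seeding and cultured for 5 days, then fixed and stained in one step (final 0.05% Triton X-100, 1% formaldehyde, 1 ug/ml Hoechst) and imaged at 4×. Doses were one drug alone or a fixed anchor-drug dose plus five library-drug doses (not always all listed) in √10 steps, and values are duplicate-plate medians.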

ABC-1 = tested on: ABC-1
Summary of the method: as §1

EBC-1 = tested on: EBC-1
Summary of the method: as §1

EMC-BAC-2 = tested on: EMC-BAC-2
Summary of the method: as §1

EPLC-272H = tested on: EPLC-272H
Summary of the method: as §1

HCC-78 = tested on: HCC-78
Summary of the method: as §1

IA-LM = tested on: IA-LM
Summary of the method: as §1

LCLC-103H = tested on: LCLC-103H
Summary of the method: as §1

LOU-NH91 = tested on: LOU-NH91
Summary of the method: as §1

NCI-H1395 = tested on: NCI-H1395
Summary of the method: as §1

NCI-H1437 = tested on: NCI-H1437
Summary of the method: as §1

NCI-H1651 = tested on: NCI-H1651
Summary of the method: as §1

NCI-H1792 = tested on: NCI-H1792
Summary of the method: as §1

NCI-H1793 = tested on: NCI-H1793
Summary of the method: as §1

NCI-H1915 = tested on: NCI-H1915
Summary of the method: as §1

NCI-H1975 = tested on: NCI-H1975
Summary of the method: as §1

NCI-H2023 = tested on: NCI-H2023
Summary of the method: as §1

NCI-H2342 = tested on: NCI-H2342
Summary of the method: as §1

NCI-H23 = tested on: NCI-H23
Summary of the method: as §1

NCI-H2405 = tested on: NCI-H2405
Summary of the method: as §1

NCI-H647 = tested on: NCI-H647
Summary of the method: as §1

NCI-H661 = tested on: NCI-H661
Summary of the method: as §1

RERF-LC-KJ = tested on: RERF-LC-KJ
Summary of the method: as §1

SK-LU-1 = tested on: SK-LU-1
Summary of the method: as §1

UMC-11 = tested on: UMC-11
Summary of the method: as §1

CCCCCCCCCCCC1=C(O)C(=O)C=C(O)C1=O [Embelin] + O=C(c1cc(Cc2n[nH]c(=O)c3ccccc23)ccc1F)N1CCN(C(=O)C2CC2)CC1 [Olaparib] (partner 8 µM)
relative viability (201T; first compound 0.08 µM): 0.826 | relative viability (201T; first compound 0.8 µM): 0.875 | relative viability (201T; first compound 2.53 µM): 0.853 | relative viability (201T; first compound 8 µM): 0.902 | relative viability (ABC-1; first compound 0.08 µM): 0.847 | relative viability (ABC-1; first compound 0.8 µM): 0.988 | relative viability (ABC-1; first compound 2.53 µM): 0.805 | relative viability (ABC-1; first compound 8 µM): 0.871 | relative viability (EBC-1; first compound 0.08 µM): 0.699 | relative viability (EBC-1; first compound 0.8 µM): 0.828 | relative viability (EBC-1; first compound 2.53 µM): 0.703 | relative viability (EBC-1; first compound 8 µM): 0.684 | relative viability (EMC-BAC-2; first compound 0.08 µM): 0.48 | relative viability (EMC-BAC-2; first compound 0.8 µM): 0.378 | relative viability (EMC-BAC-2; first compound 2.53 µM): 0.453 | relative viability (EMC-BAC-2; first compound 8 µM): 0.492 | relative viability (EPLC-272H; first compound 0.08 µM): 0.845 | relative viability (EPLC-272H; first compound 0.8 µM): 0.924 | relative viability (EPLC-272H; first compound 2.53 µM): 0.752 | relative viability (EPLC-272H; first compound 8 µM): 1.14 | relative viability (HCC-78; first compound 0.08 µM): 0.953 | relative viability (HCC-78; first compound 0.8 µM): 0.78 | relative viability (HCC-78; first compound 2.53 µM): 0.961 | relative viability (HCC-78; first compound 8 µM): 0.778 | relative viability (IA-LM; first compound 0.08 µM): 0.899 | relative viability (IA-LM; first compound 0.8 µM): 0.894 | relative viability (IA-LM; first compound 2.53 µM): 0.847 | relative viability (IA-LM; first compound 8 µM): 0.616 | relative viability (LCLC-103H; first compound 0.08 µM): 0.762 | relative viability (LCLC-103H; first compound 0.8 µM): 0.796 | relative viability (LCLC-103H; first compound 2.53 µM): 0.802 | relative viability (LCLC-103H; first compound 8 µM): 0.764 | relative viability (LOU-NH91; first compound 0.08 µM): 0.931 | relative viability (LOU-NH91; first compound 0.8 µM): 1.01 | relative viability (LOU-NH91; first compound 2.53 µM): 0.988 | relative viability (LOU-NH91; first compound 8 µM): 0.924 | relative viability (NCI-H1395; first compound 0.08 µM): 0.539 | relative viability (NCI-H1395; first compound 0.8 µM): 0.486 | relative viability (NCI-H1395; first compound 2.53 µM): 0.461 | relative viability (NCI-H1395; first compound 8 µM): 0.443 | relative viability (NCI-H1437; first compound 0.08 µM): 0.611 | relative viability (NCI-H1437; first compound 0.8 µM): 0.685 | relative viability (NCI-H1437; first compound 2.53 µM): 0.639 | relative viability (NCI-H1437; first compound 8 µM): 0.495 | relative viability (NCI-H1651; first compound 0.08 µM): 0.201 | relative viability (NCI-H1651; first compound 0.8 µM): 0.166 | relative viability (NCI-H1651; first compound 2.53 µM): 0.166 | relative viability (NCI-H1651; first compound 8 µM): 0.191 | relative viability (NCI-H1792; first compound 0.08 µM): 0.507 | relative viability (NCI-H1792; first compound 0.8 µM): 0.42 | relative viability (NCI-H1792; first compound 2.53 µM): 0.547 | relative viability (NCI-H1792; first compound 8 µM): 0.278 | relative viability (NCI-H1793; first compound 0.08 µM): 0.993 | relative viability (NCI-H1793; first compound 0.8 µM): 1.03 | relative viability (NCI-H1793; first compound 2.53 µM): 1.12 | relative viability (NCI-H1793; first compound 8 µM): 1.05 | relative viability (NCI-H1915; first compound 0.08 µM): 0.274 | relative viability (NCI-H1915; first compound 0.8 µM): 0.254 | relative viability (NCI-H1915; first compound 2.53 µM): 0.243 | relative viability (NCI-H1915; first compound 8 µM): 0.248 | relative viability (NCI-H1975; first compound 0.08 µM): 0.887 | relative viability (NCI-H1975; first compound 0.8 µM): 0.779 | relative viability (NCI-H1975; first compound 2.53 µM): 0.932 | relative viability (NCI-H1975; first compound 8 µM): 0.904 | relative viability (NCI-H2023; first compound 0.08 µM): 0.432 | relative viability (NCI-H2023; first compound 0.8 µM): 0.455 | relative viability (NCI-H2023; first compound 2.53 µM): 0.509 | relative viability (NCI-H2023; first compound 8 µM): 0.229 | relative viability (NCI-H2342; first compound 0.08 µM): 0.482 | relative viability (NCI-H2342; first compound 0.8 µM): 0.432 | relative viability (NCI-H2342; first compound 2.53 µM): 0.459 | relative viability (NCI-H2342; first compound 8 µM): 0.427 | relative viability (NCI-H23; first compound 0.08 µM): 0.298 | relative viability (NCI-H23; first compound 0.8 µM): 0.257 | relative viability (NCI-H23; first compound 2.53 µM): 0.344 | relative viability (NCI-H23; first compound 8 µM): 0.274 | relative viability (NCI-H2405; first compound 0.08 µM): 0.872 | relative viability (NCI-H2405; first compound 0.8 µM): 0.842 | relative viability (NCI-H2405; first compound 2.53 µM): 0.909 | relative viability (NCI-H2405; first compound 8 µM): 0.863 | relative viability (NCI-H647; first compound 0.08 µM): 0.575 | relative viability (NCI-H647; first compound 0.8 µM): 0.67 | relative viability (NCI-H647; first compound 2.53 µM): 0.705 | relative viability (NCI-H647; first compound 8 µM): 0.678 | relative viability (NCI-H661; first compound 0.08 µM): 0.771 | relative viability (NCI-H661; first compound 0.8 µM): 0.75 | relative viability (NCI-H661; first compound 2.53 µM): 0.737 | relative viability (NCI-H661; first compound 8 µM): 0.722 | relative viability (RERF-LC-KJ; first compound 0.08 µM): 0.846 | relative viability (RERF-LC-KJ; first compound 0.8 µM): 0.956 | relative viability (RERF-LC-KJ; first compound 2.53 µM): 1.02 | relative viability (RERF-LC-KJ; first compound 8 µM): 0.48 | relative viability (SK-LU-1; first compound 0.08 µM): 0.591 | relative viability (SK-LU-1; first compound 0.8 µM): 0.56 | relative viability (SK-LU-1; first compound 2.53 µM): 0.505 | relative viability (SK-LU-1; first compound 8 µM): 0.433 | relative viability (UMC-11; first compound 0.08 µM): 0.338 | relative viability (UMC-11; first compound 0.8 µM): 0.389 | relative viability (UMC-11; first compound 2.53 µM): 0.352 | relative viability (UMC-11; first compound 8 µM): 0.331
